Source: article PMC10163008 (Nature Communications, 2023)
“And” between values parts separate entries of the source, which are not always exact repeats. Identical values can stand only once.

Legend:
[1] = test system: CHLA-20 cells (ALK R1275Q, parental); experiment: Cell viability assay (Cell Titer-Glo, 120 h); type: cell-based, human; conditions: cell viability after 120 h of treatment
[2] = test system: CHLA-20 cells with ALK R1275Q/G1202R (CRISPR, in cis); experiment: Cell viability assay (Cell Titer-Glo, 120 h); type: cell-based, human
[3] = test system: patients with ALK-driven relapsed/refractory neuroblastoma; experiment: Serial ctDNA profiling (FoundationACT / FoundationOne Liquid CDx) and clinical response in the NANT phase 1 lorlatinib trial; conditions: Group 3 (ALK undetectable) patients, all responded
Protocol: Optional blood sampling was prospectively performed at predefined time points including pretreatment, after courses 2,4,6, and then after every 4th course and at disease progression. Patients <18 years of age were treated across 5 dose levels (cohort A1).
Blood samples for circulating tumor DNA profiling were drawn prior to enrollment, after courses 2, 4, and 6, and then after every 4 courses of treatment for the duration of patient participation in the trial. Forty-six patients were evaluable for this ctDNA study.
16-20 ml of whole blood was drawn from each patient and sent to Foundation Medicine in Streck tubes for ctDNA profiling.
Sequencing data were analyzed for the presence of short variants (single base substitutions and short insertions/deletions), copy number amplifications and homozygous deletions, and detectable gene rearrangements. […]
For most samples, we were able to estimate the ctDNA quantity using the comprehensive tumor fraction (CTF) method, using established computational methods[46],[47]. For samples in which no ALK was detected, we analyzed CTF to determine if any ctDNA was found in the cell-free DNA sequenced. For samples where CTF could not be calculated, MSAF was manually assessed to determine the fraction of ctDNA content[48]. […]

C[C@H]1Oc2cc(cnc2N)-c2c(nn(C)c2C#N)CN(C)C(=O)c2ccc(F)cc21 [lorlatinib, (10R)-7-amino-12-fluoro-2,10,16-trimethyl-15-oxo-10,15,16,17-tetrahydro-2H-8,4-(metheno)pyrazolo[4,3-h][2,5,11]-benzoxadiazacyclotetradecine-3-carbonitrile]
IC50 [1]: 0.015 ± 0.004 µM | cell viability ([2]; [lorlatinib] 33, 120 h, exp #1-#9): 104.185 and 94.5372 and 95.8368 and 98.7284 and 103.246 and 102.304 and 104.304 and 98.5652 | IC50 ([2]; cell viability after 120 h of treatment): 0.318 ± 0.058 µM | duration of response [3]: 4 to 48 cycles of therapy
